The values below are quoted from earlier work in US8067401B2, “Compounds and compositions for treating infection” (priority 2007, dated 2011).

The subject of this data set is HIV-1.

For Prunellin, the “minimum inhibition concentration against HIV-1 in vitro” value was 2.2 µg/mL.
